Assay: Resistance test in acid medium (omeprazole content after neutralisation, over time)
Format: physicochemical
Conditions: stirred medium pH 1,2, 37,5°C; omeprazole assayed by HPLC after neutralisation to pH=6,8, over time; figure 1
Experimental: Pour déterminer la résistance au pH acide, les préparations sont placées en milieu agité à pH 1,2 à 37,5°C. La résistance au pH acide est déterminée par le dosage du taux d'Oméprazole après neutralisation à pH=6,8 en fonction du temps.
L'Oméprazole est dosée par HPLC après extraction.

## COc1ccc2[nH]c([S+]([O-])Cc3ncc(C)c(OC)c3C)nc2c1 (stereo not shown) [Oméprazole libre, Oméprazole]
  résistance au pH acide: dégradé en quelques minutes

From patent EP1827382B1, “NOVEL GALENIC SYSTEM FOR ACTIVE PRINCIPLE TRANSPORT, PREPARATION METHOD AND USE” (Capsugel France, priority 2004, dated 2006)
